According to patent US20240391931A1 (Bristol-Myers Squibb Company, priority 2021, published 2024):

How the values were obtained:
[1] = molecular target: T1, HER2 wildtype (WT) protein (Homo sapiens, UniProt P04626); assay: HER2 signaling (pHER2 Tyr1248/total HER2 MSD) in BT474 cells; format: cell-based; conditions: 1.5 hr compound, 1% FBS
T1 construct: BT474 and N87 cell lines which endogenously overexpress the HER2 wildtype (WT) protein; endogenous in cells; host or cells: BT474, N87
Method in brief: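 BT474, N87 (HER2 WT) and NCI-H1781 (HER2 G776delinsVC) cells were treated for 1.5 h at 37° C in 1% FBS medium with compound at 0.0005–1.1 μM. pHER2 Tyr1248 was measured by MSD on whole-cell lysates and normalized to total HER2 as % DMSO. EC50 came from a variable-slope sigmoidal fit.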

HER2 WT = molecular target: T2, HER2 WT (Homo sapiens, UniProt P04626); assay: Enzymatic assay HER2 WT (method a); format: biochemical; conditions: [HER2 WT]=12.5 nM, [ATP]=25 μM, [Peptide 22]=1 μM
T2 construct: purchased ProQinase, Freiburg, Germany ERBB2 0108-0000-1
T2 sequence (P04626 23-1255): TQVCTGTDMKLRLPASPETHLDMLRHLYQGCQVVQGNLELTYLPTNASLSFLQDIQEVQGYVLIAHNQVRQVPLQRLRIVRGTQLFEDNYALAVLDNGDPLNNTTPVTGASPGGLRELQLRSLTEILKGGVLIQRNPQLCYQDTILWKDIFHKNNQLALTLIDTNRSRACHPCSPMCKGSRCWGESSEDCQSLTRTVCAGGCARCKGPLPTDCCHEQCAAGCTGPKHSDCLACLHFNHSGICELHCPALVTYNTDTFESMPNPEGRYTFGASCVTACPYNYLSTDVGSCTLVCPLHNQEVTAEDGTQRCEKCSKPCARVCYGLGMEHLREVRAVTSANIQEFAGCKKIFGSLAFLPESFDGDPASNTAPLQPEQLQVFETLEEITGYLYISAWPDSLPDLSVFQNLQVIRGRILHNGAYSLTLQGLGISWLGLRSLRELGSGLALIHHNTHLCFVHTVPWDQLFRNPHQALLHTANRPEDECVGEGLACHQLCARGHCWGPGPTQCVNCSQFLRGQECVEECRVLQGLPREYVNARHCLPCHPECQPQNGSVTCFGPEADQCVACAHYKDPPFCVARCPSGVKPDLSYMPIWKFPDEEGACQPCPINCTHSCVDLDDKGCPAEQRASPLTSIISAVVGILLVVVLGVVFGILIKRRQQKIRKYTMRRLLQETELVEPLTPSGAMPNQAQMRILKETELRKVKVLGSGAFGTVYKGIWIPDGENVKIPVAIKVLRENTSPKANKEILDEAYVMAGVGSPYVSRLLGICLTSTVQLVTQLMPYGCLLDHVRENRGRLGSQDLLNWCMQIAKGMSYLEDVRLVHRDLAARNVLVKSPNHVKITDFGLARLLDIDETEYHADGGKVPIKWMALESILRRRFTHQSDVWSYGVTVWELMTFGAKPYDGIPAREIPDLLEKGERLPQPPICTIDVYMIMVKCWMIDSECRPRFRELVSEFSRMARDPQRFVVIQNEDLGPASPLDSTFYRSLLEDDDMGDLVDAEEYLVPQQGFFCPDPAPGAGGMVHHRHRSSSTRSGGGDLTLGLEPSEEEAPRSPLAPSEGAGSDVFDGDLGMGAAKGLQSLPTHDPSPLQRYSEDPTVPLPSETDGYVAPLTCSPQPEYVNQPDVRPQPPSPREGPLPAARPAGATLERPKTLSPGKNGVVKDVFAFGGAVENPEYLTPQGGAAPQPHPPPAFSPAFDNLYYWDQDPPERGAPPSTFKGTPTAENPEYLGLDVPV
Method in brief: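 Microfluidic mobility-shift kinase assay with Peptide 22 (1 μM) in HEPES pH 7.5, MnCl2, MgCl2, Tween 20, TCEP. HER2 WT 12.5 nM and HER2 YVMA 5 nM each used 25 μM ATP; EGFR WT 2 nM used 1 mM ATP. IC50 came from initial-velocity (0–3600 s) percent inhibition, fitted to a variable-slope model.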

T1 sequence (P04626 23-1255): as above

| Structure (SMILES) | EC50 [1] [nM] | IC50 (HER2 WT) [nM] |
| --- | --- | --- |
| Cc1ccc(Oc2ccc(Nc3ncnc4sc5c(c34)C(C)CN(C(=O)/C=C/CN3CCOCC3)C5)cc2C)cn1 (stereo not shown) [Compound 174, (E)-1-(5-Methyl-4-((3-methyl-4-((6-methylpyridin-3-yl)oxy)phenyl)amino)-5,6-dihydropyrido[4′,3′:4,5]thieno[2,3-d]pyrimidin-7(8H)-yl)-4-morpholinobut-2-en-1-one] | < 100 | 100 to 1000 |
| Cc1ccc(Oc2ccc(Nc3ncnc4sc5c(c34)C(C)CN(C(=O)/C=C/CN(C)C(C)(C)C)C5)cc2C)cn1 (stereo not shown) [Compound 175] | < 100 | < 100 |
